Test results as given in US11149064B2, “Vasoactive polypeptides for smooth muscle relaxation” (Vanderbilt University, priority 2016, dated 2021).
“Also recorded” adds a separate entry of the source. Non-standard residues stand in square brackets, D forms with d. No end group written: not given here. *: point of attachment. Palmitoyl = CCCCCCCCCCCCCCCC(=O)*; pS = N[C@@H](COP(=O)(O)O)C(=O)O

Experiments:
rat aortic smooth muscle = test: Vasorelaxation of pre-contracted, endothelium-denuded rat aortic rings in a muscle bath; assay type: cell-based; settings: for relaxation of rat aortic smooth muscle: phenylephrine-precontracted, endothelium-denuded rat aorta, escalating doses of polypeptide 0.1 to 1.0 mM (FIG. 2); for potency in vasorelaxation after chemical or formulatory modification of VASP1: compared with VASP1 (FIGS. 6 and 7)
Procedure: (§1) Freshly isolated rat aorta denuded of endothelium were suspended in a muscle bath and force generated were recorded. Phenylephrine-precontracted tissues were treated with either sodium nitroprusside (1 nM) or escalating doses of the polypeptides indicated (0.1 to 1.0 mM). Contractile response was defined by stress, which was calculated using the force generated by the tissues. [10^5 Newtons (N)/m^2]−force (g)×0.0987/area, where area is equal to the wet weight [(mg)/length (mm at maximal length)] divided by 1.055). Percent relaxation were determined as a change to the maximal phenylephrine-induced contraction. Data are reported as mean responses±standard error of the mean. n=3-17.
FIGS. 4A and B show graphs illustrating the effects of nimodipine on polypeptide induced vasorelaxation in phenylephrine precontracted rat aortic smooth muscle. Freshly isolated rat aorta denuded of endothelium were suspended in a muscle bath and force generated were recorded. Phenylephrine-precontracted tissues were treated either with escalating doses of the calcium channel blocker nimodipine (NIMO; 0.01 to 1 uM), the VASP1 polypeptide (0.1 to 1.0 mM), nimodipine (0.1 μM) followed by the VASP1 polypeptide (0.25 mM) [NIMO/VASP1], the VASP1 polypeptide (0.25 mM) followed by nimodipine (0.1 μM) [VASP1/NIMO], or simultaneous addition of nimodipine (0.1 μM) plus the VASP1 polypeptide (0.25 mM) [NIMO+VASP1]. Contractile response was defined by stress, which was calculated using the force generated by the tissues. [10^5 Newtons (N)/m^2]=force (g)×0.0987/area, where area is equal to the wet weight [(mg)/length (mm at maximal length)] divided by 1.055). (A) Percent relaxation were determined as a change to the maximal phenylephrine-induced contraction. Data are reported as mean responses±standard error of the mean. n=3-4. (B). Representative tracings of force generated in response to phenylephrine, nimodipine and the VASP1 polypeptides.
Freshly isolated rat aorta denuded of endothelium were suspended in a muscle bath and force generated were recorded. (A) Endothelin 1 (ET)-precontracted tissues were treated either with escalating doses of the calcium channel blocker nimodipine (NIMO; 0.001 to 0.1 uM), the VASP1 polypeptide (0.1 to 1.0 mM). (B) ET-precontracted tissues were treated with VASP1 polypeptide alone (0.25 mM), nimodipine alone (0.01 or 0.1 uM), nimodipine (0.01 or 0.1 uM) followed by the VASP1 polypeptide (0.25 mM), [NIMO/VASP1], the VASP1 polypeptide (0.25 mM) followed by nimodipine (0.01 or 0.1 uM), [VASP1/NIMO], or simultaneous addition of nimodipine (0.1 uM) plus the VASP1 polypeptide (0.25 mM) [NIMO+VASP1]. Contractile response was defined by stress, which was calculated using the force generated by the tissues. [10^5 Newtons (N)/m^2]=force (g)×0.0987/area, where area is equal to the wet weight [(mg)/length (mm at maximal length)] divided by 1.055). (A) Percent relaxation were determined as a change to the maximal phenylephrine-induced contraction. Data are reported as mean responses±standard error of the mean. n=2-12.
as §1, with “bath,” for “bath”, “polypeptides or polypeptide-containing nanoparticles” for “polypeptides”, “(N)/m^2]=force” for “(N)/m^2]−force”, “n=2-6.” for “n=3-17.”
Freshly isolated rat aorta denuded of endothelium were suspended in a muscle bath and force generated were recorded. […]

airway smooth muscle = test: Relaxation of carbachol-precontracted porcine bronchial rings in a muscle bath; assay type: cell-based; settings: polypeptides 0.1 to 1.0 mM (FIG. 8)
Procedure: (§2) Bronchial rings were isolated from fresh porcine lung, suspended in a muscle bath, and force generated were recorded. Carbachol-precontracted tissues were treated with escalating doses of the polypeptides indicated (0.1 to 1.0 mM). Contractile response was defined by stress, which was calculated using the force generated by the tissues. [10^5 Newtons (N)/m^2]=force (g)×0.0987/area, where area is equal to the wet weight [(mg)/length (mm at maximal length)] divided by 1.055). Percent relaxation were determined as a change to the maximal carbachol-induced contraction. Data are reported as mean responses±standard error of the mean. n=2-4.
as §2, with “Freshly isolated porcine bronchial” for “Bronchial”, “were” for “were isolated from fresh porcine lung,”, “bath.” for “bath, and force generated were recorded.”, “with” for “with escalating doses of”, “alone (−nife) or 0.1 uM nifedipine followed by the polypeptides (+nife).” for “indicated (0.1 to 1.0 mM).”, “n=1-2.” for “n=2-4.”
Bronchial rings were suspended in the muscle bath and equilibrated for 3 hours at a basal tension of 1 gram. Rings were then contracted with the agonist carbachol (150 nM) and then relaxed with cumulative doses of the polypeptides (0.1 to 1.0 mM).
Porcine bronchial rings were suspended in the muscle bath. Tissues were treated with channel blocker alone, polypeptide alone, or in combination. The results of these study are illustrated in FIG. 9.
Rat aortae were isolated from euthanized female Sprague-Dawley rats. Porcine bronchial rings were isolated from lung obtained from euthanized female Yorkshire pigs.

[1] = phenylephrine or endothelin-1 pre-contracted rat aortic rings

| Substance | relaxation of rat aortic smooth muscle (rat aortic smooth muscle) | relaxation of airway smooth muscle (airway smooth muscle) | also measured |
| --- | --- | --- | --- |
| IRQTADRWRVSLDVNLTVK [SEQ ID NO: 4, peptide analogue of HSP27] | directly cause smooth muscle relaxation | directly cause smooth muscle relaxation |  |
| KLRKV(pS)K (KLRKV[pS]K) [SEQ ID NO: 9, control peptide without transduction domain] | do not directly cause relaxation; also recorded: exception |  |  |
| KLRKV(pS)KLTVK (KLRKV[pS]KLTVK) [SEQ ID NO: 8, phosphopeptide analogue of VASP] | directly cause smooth muscle relaxation | directly cause smooth muscle relaxation |  |
| YARAAARQARAA(pS)GVAVSDG (YARAAARQARAA[pS]GVAVSDG) [SEQ ID NO: 1, phosphopeptide analogue of cofilin] | directly cause smooth muscle relaxation | directly cause smooth muscle relaxation |  |
| YARAAARQARAA(pS)GVTVSDEVI (YARAAARQARAA[pS]GVTVSDEVI) [SEQ ID NO: 2, phosphopeptide analogue of cofilin] | directly cause smooth muscle relaxation | directly cause smooth muscle relaxation |  |
| YARAAARQARAIRQTADRWRVSLDVN [SEQ ID NO: 3, peptide analogue of HSP27] | directly cause smooth muscle relaxation | directly cause smooth muscle relaxation |  |
| YARAAARQARAK(pS)RVLKK (YARAAARQARAK[pS]RVLKK) [SEQ ID NO: 10, control peptide] | do not directly cause relaxation |  | relaxation of rat aortic smooth muscle (rat aortic smooth muscle; listed as scrVASP1): exception |
| YARAAARQARAKLRKV(pS)K (YARAAARQARAKLRKV[pS]K) [SEQ ID NO: 5, phosphopeptide analogue of VASP] | directly cause smooth muscle relaxation | directly cause smooth muscle relaxation | vasorelaxation in combination with calcium channel blocker nimodipine (rat aortic smooth muscle; phenylephrine or endothelin-1 pre-contracted rat aortic rings, VASP1 0.25 mM with nimodipine 0.01 or 0.1 uM (FIGS. 4A-5B)): works in concert with calcium channel blocker, nimodipine, to enhance vasorelaxation; relaxation of rat aortic smooth muscle (rat aortic smooth muscle; listed as VASP1): sequence specific |
| YARAAARQARAKLRKV(pS)KQEEA (YARAAARQARAKLRKV[pS]KQEEA) [SEQ ID NO: 6, phosphopeptide analogue of VASP] | directly cause smooth muscle relaxation | directly cause smooth muscle relaxation |  |
| YARAAARQARAKLRKV(pS)KQEEASG (YARAAARQARAKLRKV[pS]KQEEASG) [SEQ ID NO: 7, phosphopeptide analogue of VASP] | directly cause smooth muscle relaxation | directly cause smooth muscle relaxation |  |
| YARAAARQARA{K(palm)}GGKLRKV(pS)K (YARAAARQARAK(Palmitoyl)GGKLRKV[pS]K) [SEQ ID NO: 12] |  |  | potency in vasorelaxation after chemical or formulatory modification of VASP1 (rat aortic smooth muscle; [1]): directly cause smooth muscle relaxation with enhanced potency |
| YARAAARQARA{K(palm)}LRKV(pS)K (YARAAARQARAK(Palmitoyl)LRKV[pS]K) [SEQ ID NO: 11] |  |  | potency in vasorelaxation after chemical or formulatory modification of VASP1 (rat aortic smooth muscle; [1]): directly cause smooth muscle relaxation with enhanced potency |
